Test results from patent publication US6605639B1, “Ligands of nuclear receptor” (Nuclear Receptor Research, Ltd., priority 1998, dated 2003).
Values joined by “and” are separate entries in the source; they are usually repeats but may differ in a detail not shown here. Equal values may be shown once. “Also recorded” adds a separate entry of the source.

Experiments:
Japanese quails = test: Inhibition of arteriosclerosis in Japanese quails fed 1% cholesterol feed; assay type: in vivo, Japanese quail; parameters: key to Atheroma formation in arcuate aorta, grade of individual birds: 0: no atheroma.; I: coated with atheroma at a ratio of 1 to 10% of the total area.; II: coated with atheroma at a ratio of 11 to 40% of the total area.; III: coated with atheroma at a ratio of 41 to 70% of the total area.; IV: coated with atheroma at a ratio of 71 to 100% of the total area; conditions: 9 months; for Atheroma formation in arcuate aorta, grade of individual birds: individuals I-VIII; for decrease of serum cholesterol level / decrease of serum neutral fat level: vs high cholesterol feed control; for Serum neutral fat / Serum total cholesterol: Mean ± SE
Description: When fed with a high fat diet, birds also show the onset of arteriosclerosis within a short period of time. Then 32 adult Japanese quails aged about 30 days were divided into 4 groups at random. […] The feed was prepared by adding 1% of cholesterol to a powdery protein-rich standard fed for chick and molding the mixture into pellets. Compound-6 was added in an amount of 0.16% or 0.0025% to the powdery feed and then the mixture was molded into pellets. The experiment was carried out for 9 months. During this period, the birds were allowed to take the feed and drinking water ad libitum. The feed employed in this experiment contained less fat, compared with the feed employed in the experiments with white rabbits, and was free from bile acid promoting the absorption of cholesterol from the digestive tract.
After 9 months, blood was collected and the serum total cholesterol level and the neutral fat level were measured. […] Each bird was dissected and the aorta was taken out. Then the severity was scored in 5 grades based on the ratio of atheroma to the total endosporium area and thickening of the arterial wall.

[1] = system: rats given streptozotocin; test: Relief of onset of streptozotocin-induced diabetes; assay type: in vivo, rat; conditions: male Wistar rats, streptozotocin 45 mg/kg i.v.; 20 mg/kg/day oral, 10 days; Mean ± SE
Description: Eighteen male Wistar rats weighing about 200 g were divided into 3 groups at random. To the animals of 2 groups, 45 mg/kg of streptozotocin was intravenously administered. One of these groups was regarded as a control group, while the other was regarded as the Compound-6 administration group. To the remaining 1 group which was regarded as the normal control group, a 1/10 M citrate buffer (pH 3.5) […] was intravenously administered. Immediately after the administration of streptozotocin, a suspension of Compound-6 in acacia was orally administered once a day continuously for 10 days in a dose of 20 mg/kg/day. To other groups, an acacia solution alone was administered. After fasting for 6 hours after the final administration, blood was collected from the heart of each animal and the blood glucose level and the blood insulin level were measured. As the data given in Table 7a show, the oral administration of Compound-6 inhibited an increase in the blood glucose level and a decrease in the blood insulin level.
Eighteen male SD rats weighing about 250 g were divided into 3 groups at random. […] To the normal control group and the streptozotocin control group, the acacia solution alone was administered orally. After fasting for 6 hours after the final administration, blood was collected from the heart of each animal and the blood glucose level and the blood insulin level were measured. As the data given in Table 7b show, the oral administration of Compound-5 inhibited an increase in the blood glucose level and a decrease in the blood insulin level.

[2] = system: patients suffered from hypercholesterolemia; test: Phase I clinical test; assay type: in vivo, human; conditions: for Serum total cholesterol: Mean ± SE
Description: A phase I clinical test of Compound-6, one of the compounds of the present invention, was carried out with 17 female and male patients aged 40 to 82 suffered from hypercholesterolemia. The experiment was continued for 12 weeks and Compound-6 was administered in the first 8 weeks. […] From the 8th week to the 12th week (the placebo-administration period) a placebo was given without notifying the patients. The drug in a daily dose was divided into 3 portions and taken after meals. Each patient visited the hospital once a week and was subject to investigation and blood collection for analyzing serum.

DOCA hypertensive rats = test: Aneurysm formation in the mesenteric artery of DOCA hypertensive rats; assay type: in vivo, rat; parameters: Lesion index, individual rats / Lesion index, Avg: scale not given here; conditions: for Appearance frequency (node count/arteriole count×100), individual rats / Lesion index, individual rats / Appearance frequency, Avg / Lesion index, Avg / Node count, Avg / Node count, individual rats: 7 weeks; for Appearance frequency, Avg / Lesion index, Avg / Node count, Avg: 6 rats; for Node count, individual rats: counted thrice, average
Source text: The compounds of the present invention show an effect of inhibiting periarteritis nodosa in a malignant hypertension model rat in which periarteritis nodosa arises in the mesenteric artery and progresses into aneurysm. Among aneurysms, those formed in the mesenteric artery can be treated quantitatively. Thus, the mesenteric artery was taken out and fixed with formalin. Then it was fat-stained and arterioles and aneurysms were counted thrice and the average aneurysm count per arteriole was calculated. To rats with renal hypofunction due to the excision of one kidney, […] saline, having a somewhat higher osmotic pressure than plasma, was given as drinking water and 10 mg/kg of deoxycorticosterone acetate (DOCA) (a mineral corticoid) was subcutaneously administered at intervals of 1 week. Twenty-four male Wistar rats were divided into 4 groups at random. After taking out the left kidney, each animal was allowed to stand and the operative wound was fused. […] The experiment was carried out for 7 weeks. Since the initiation of the experiment, the feed intake, water intake, urine, body weight and blood pressure of each group were measured once every three days.
The average blood pressure exceeded 180 mmHg in the 3rd week and attained 200 mmHg in the 4th week. […] In the 7th week, each animal was dissected and the mesenteric artery was taken out. After treating with formalin, the artery was fat-stained and aneurysms were counted. […] In the high-dose Compound-6 group, the average aneurysm count per arteriole was lowered to 0.27±0.05.
Arterioles and nodes in the mesenteric artery were each counted thrice and the average was calculated.
a) Appearance frequency=node count/arteriole count×100 (%).

db/db mice = conditions: oral; cited from earlier work
[3] = After 10 weeks, placebo period after 8 weeks of drug (carry-over)
[4] = After 12 weeks, placebo period after 8 weeks of drug (carry-over)

COc1c(Cl)c(C)c(C=O)c(O)c1C/C=C(C)/C=C/[C@@]1(C)[C@H](C)CCC(=O)[C@@H]1C [Compound-6, 4-O-methylASC]
occurrence of atheroma (Japanese quails; High-dose group (0.16%)): no atheroma
Atheroma formation in arcuate aorta, grade of individual birds (Japanese quails; High-dose group (0.16%)): 0
Atheroma severity score, Average (Japanese quails; High-dose group (0.16%), n = 8): 0.00 ± 0.00
decrease of serum cholesterol level (Japanese quails; High-dose group): 40%
decrease of serum neutral fat level (Japanese quails; High-dose group): 40%
Serum neutral fat, change vs control (Japanese quails; High-dose, 0.16% in feed): −40.0%
Serum total cholesterol, change vs control (Japanese quails; High-dose, 0.16% in feed): −40.4%
Serum neutral fat (Japanese quails; High-dose, 0.16% in feed): 392.6 ± 46.5 mg/dL
Serum total cholesterol (Japanese quails; High-dose, 0.16% in feed): 1200 ± 136 mg/dL
fraction of the birds with atheroma (Japanese quails; Low-dose group (0.0025%)): ½
Atheroma formation in arcuate aorta, grade of individual birds (Japanese quails; Low-dose group (0.0025%)): 0 (4×) and I (coated with atheroma at a ratio of 1 to 10% of the total area.) (4×)
decrease of serum cholesterol level (Japanese quails; Low-dose group): 25.5%
decrease of serum neutral fat level (Japanese quails; Low-dose group): 21.6%
Serum neutral fat, change vs control (Japanese quails; Low-dose, 0.0025% in feed): −21.6%
Serum total cholesterol, change vs control (Japanese quails; Low-dose, 0.0025% in feed): −25.5%
Serum neutral fat (Japanese quails; Low-dose, 0.0025% in feed): 513.1 ± 39.2 mg/dL
Serum total cholesterol (Japanese quails; Low-dose, 0.0025% in feed): 1499 ± 120 mg/dL
Blood glucose [1]: 277.2 ± 52.44 mg/dL
Serum IRI [1]: 12.3 ± 1.65 mU/ml
patients with vertigo ([2]; 17 patients): one
Serum total cholesterol, Decrease ([2]; After 1 week, dose 0.5 (mg.kg)): −20%
Serum total cholesterol ([2]; After 1 week, dose 0.5 (mg.kg), n = 17): 273 ± 62.7 mg/dL
Serum total cholesterol, Decrease ([2]; After 2 weeks, dose 1 (mg.kg)): −22%
Serum total cholesterol ([2]; After 2 weeks, dose 1 (mg.kg), n = 17): 266 ± 66.7 mg/dL
Serum total cholesterol, Decrease ([2]; After 3 weeks, dose 2 (mg.kg)): −21%
Serum total cholesterol ([2]; After 3 weeks, dose 2 (mg.kg), n = 17): 269 ± 66.0 mg/dL
Serum total cholesterol, Decrease ([2]; After 4 weeks, dose 4 (mg.kg)): −28%
Serum total cholesterol ([2]; After 4 weeks, dose 4 (mg.kg), n = 17): 254 ± 65.7 mg/dL
Serum total cholesterol, Decrease ([2]; After 6 weeks, dose 8 (mg.kg)): −36%
Serum total cholesterol ([2]; After 6 weeks, dose 8 (mg.kg), n = 17): 217 ± 58.8 mg/dL
Serum total cholesterol, Decrease ([2]; After 8 weeks, dose 16 (mg.kg)): −33%
Serum total cholesterol ([2]; After 8 weeks, dose 16 (mg.kg), n = 17): 229 ± 61.5 mg/dL
Serum total cholesterol, Decrease [2, 3]: −25%
Serum total cholesterol [2, 3]: 256 ± 57.6 mg/dL
Serum total cholesterol, Decrease [2, 4]: −22%
Serum total cholesterol [2, 4]: 264 ± 57.7 mg/dL
side effects, subjective or objective ([2]; daily dose 1 mg/kg to 16 mg/kg, oral): no serious side effect; also recorded: no subjective or objective side effect
blood glucose levels of 5 diabetics included in the patients, lowered to ([2]; human, in vivo): 100 mg/dL
systolic and diastolic blood pressure of patients with hypertension or borderline hypertension ([2]; human, in vivo): lowered
Appearance frequency (node count/arteriole count×100), individual rats (DOCA hypertensive rats; 10 mg/kg/day): 25.89% and 20.56% and 27.27% and 274.91% and 33.35% and 15.00%
Lesion index, individual rats (DOCA hypertensive rats; 10 mg/kg/day): 1 (5×) and 4
Appearance frequency, Avg (DOCA hypertensive rats; 10 mg/kg/day): 66.16 ± 41.83%
Lesion index, Avg (DOCA hypertensive rats; 10 mg/kg/day): 1.50 ± 0.50
Node count, Avg (DOCA hypertensive rats; 10 mg/kg/day): 9.27
Node count, individual rats (DOCA hypertensive rats; 10 mg/kg/day): 2.33 (2×) and 3.00 and 40.33 and 5.67 and 2.00
Appearance frequency (node count/arteriole count×100), individual rats (DOCA hypertensive rats; 40 mg/kg/day): 7.89% and 3.19% and 16.67% and 36.59% and 25.62% and 28.87%
Lesion index, individual rats (DOCA hypertensive rats; 40 mg/kg/day): 1
Appearance frequency, Avg (DOCA hypertensive rats; 40 mg/kg/day): 26.57 ± 5.24 %
Lesion index, Avg (DOCA hypertensive rats; 40 mg/kg/day): 1.00 ± 0.00
Node count, Avg (DOCA hypertensive rats; 40 mg/kg/day): 2.67
Node count, individual rats (DOCA hypertensive rats; 40 mg/kg/day): 1.00 and 0.33 and 2.00 and 5.00 and 3.33 and 4.33
average aneurysm count per arteriole (DOCA hypertensive rats; high-dose group (40 mg/kg/day), 7th week): 0.27±0.05
aneurysms per arteriole on average (DOCA hypertensive rats; low-dose group (10 mg/kg/day), 7th week): 0.66±0.41

CC(/C=C/[C@@]1(C)[C@H](C)CCC(=O)[C@@H]1C)=C\Cc1c(O)c(C=O)c(C)c(Cl)c1OCC(=O)O [Compound-14, 4-O-carboxymethylASC]
blood glucose level, serum lipid level and serum insulin level (db/db mice): significantly lowered
